Test results as given in PubChem BioAssay AID330 (DTP/NCI, 2004).
Values joined by “and” are separate entries in the source; they are usually repeats but may differ in a detail not shown here. Equal values may be shown once. Toxic doses and inconclusive results are not listed.

System: P388 leukemia ip, CD2F1 mice, survival T/C
Assay: NCI In Vivo Anticancer Drug Screen. Data for tumor model P388 Leukemia (intraperitoneal) in CD2F1 (CDF1) mice
Settings: endpoint: median survival time, higher = longer survival
Method in brief: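 Mice carrying the transplanted tumor received test compound or vehicle. Survival was recorded in each group, and the value is the treated-group measurement divided by that of the vehicle-treated control group.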

[1] = dose: 50.0 mg/kg/injection, schedule: Q01DX009 (ip), vehicle: saline with Tween-80
[2] = dose: 100.0 mg/kg/injection, schedule: Q01DX009 (ip), vehicle: saline with Tween-80
[3] = dose: 200.0 mg/kg/injection, schedule: Q01DX009 (ip), vehicle: saline with Tween-80
[4] = dose: 25.0 mg/kg/injection, schedule: Q01DX005 (ip), vehicle: Klucel (hydroxypropylcellulose) (HPC)
[5] = dose: 50.0 mg/kg/injection, schedule: Q01DX005 (ip), vehicle: Klucel (hydroxypropylcellulose) (HPC)
[6] = dose: 100.0 mg/kg/injection, schedule: Q01DX005 (ip), vehicle: Klucel (hydroxypropylcellulose) (HPC)
[7] = dose: 50.0 mg/kg/injection, schedule: Q01DX009 (ip), vehicle: saline
[8] = dose: 100.0 mg/kg/injection, schedule: Q01DX009 (ip), vehicle: saline
[9] = dose: 200.0 mg/kg/injection, schedule: Q01DX009 (ip), vehicle: saline
[10] = dose: 60.0 mg/kg/injection, schedule: Q01DX005 (ip), vehicle: Klucel (hydroxypropylcellulose) (HPC)
[11] = dose: 120.0 mg/kg/injection, schedule: Q01DX005 (ip), vehicle: Klucel (hydroxypropylcellulose) (HPC)
[12] = dose: 240.0 mg/kg/injection, schedule: Q01DX005 (ip), vehicle: Klucel (hydroxypropylcellulose) (HPC)
[13] = dose: 30.0 mg/kg/injection, schedule: Q01DX005 (ip), vehicle: Klucel (hydroxypropylcellulose) (HPC)
[14] = dose: 12.5 mg/kg/injection, schedule: Q01DX009 (ip), vehicle: saline
[15] = dose: 25.0 mg/kg/injection, schedule: Q01DX009 (ip), vehicle: saline
[16] = dose: 100.0 mg/kg/injection, schedule: Q04DX003 (ip), vehicle: saline with Tween-80
[17] = dose: 200.0 mg/kg/injection, schedule: Q04DX003 (ip), vehicle: saline with Tween-80
[18] = dose: 60.0 mg/kg/injection, schedule: Q01DX005 (ip), vehicle: saline

With COc1cc2cc(c1Cl)N1CC(=O)C(C)(O)C(=O)N(C)C(C)C(=O)OC(CC1=O)C1(C)OC1C(C)C1CC(O)(NC(=O)O1)C(OC)/C=C\C=C(\C)C2OC (centres undefined) the T/C (dose: 2.0 micrograms/kg/injection, schedule: Q01DX009 (ip), vehicle: distilled water + alcohol) was 151 % of control, the T/C (dose: 4.0 micrograms/kg/injection, schedule: Q01DX009 (ip), vehicle: distilled water + alcohol) was 153 % of control and 168 % of control and the T/C (dose: 16.0 micrograms/kg/injection, schedule: Q01DX009 (ip), vehicle: distilled water + alcohol) was 210 % of control.

In the case of CC(CC(=O)c1ccccc1)C(Sc1ccccc1)(Sc1ccccc1)Sc1ccccc1 (centres undefined), the T/C (dose: 50.0 mg/kg/injection, schedule: Q01DX009 (ip), vehicle: Klucel (hydroxypropylcellulose) (HPC)) was 93 % of control, the T/C (dose: 100.0 mg/kg/injection, schedule: Q01DX009 (ip), vehicle: Klucel (hydroxypropylcellulose) (HPC)) was 90 % of control and the T/C (dose: 200.0 mg/kg/injection, schedule: Q01DX009 (ip), vehicle: Klucel (hydroxypropylcellulose) (HPC)) was 89 % of control.

CCC(=O)Nc1ccc(N)cc1 was tested, and the T/C (dose: 100.0 mg/kg/injection, schedule: Q04DX003 (ip), vehicle: saline) was 98 % of control and the T/C (dose: 200.0 mg/kg/injection, schedule: Q04DX003 (ip), vehicle: saline) was 97 % of control.

CC1CCCN2C(=O)CN(c3ccccc3)CC(=O)N12 (centres undefined) was tested, and the T/C (dose: 50.0 mg/kg/injection, schedule: Q01DX005 (ip), vehicle: saline with Tween-80) was 98 % of control, the T/C (dose: 100.0 mg/kg/injection, schedule: Q01DX005 (ip), vehicle: saline with Tween-80) was 103 % of control and the T/C (dose: 200.0 mg/kg/injection, schedule: Q01DX005 (ip), vehicle: saline with Tween-80) was 99 % of control.

In the case of N#C/C(=C1C=C(Br)/C(=N\O)C=C\1Cl)c1cccc2ccccc12, the T/C [1] was 103 % of control, the T/C [2] was 102 % of control and the T/C [3] was 102 % of control. The T/C (dose: 400.0 mg/kg/injection, schedule: Q01DX009 (ip), vehicle: saline with Tween-80) was 115 % of control.

With COC(=O)C1=CO[C@@H](OC2OC(CO)C(O)C(O)C2O)[C@@H]2[C@@H](C)[C@@H](O)[C@@H](O)[C@]12O (some centres undefined) the T/C (dose: 25.0 mg/kg/injection, schedule: Q01DX005 (ip), vehicle: saline) was 102 % of control, the T/C (dose: 50.0 mg/kg/injection, schedule: Q01DX005 (ip), vehicle: saline) was 102 % of control and the T/C (dose: 100.0 mg/kg/injection, schedule: Q01DX005 (ip), vehicle: saline) was 100 % of control. For the same compound, the T/C (dose: 200.0 mg/kg/injection, schedule: Q01DX005 (ip), vehicle: saline) was 108 % of control.

CNc1[nH]c(=O)ncc1N was tested, and the T/C [4] was 98 % of control, the T/C [5] was 98 % of control and the T/C [6] was 98 % of control.

NC1=NS(=O)(=O)Nc2nonc21 was tested, and the T/C [1] was 96 % of control, the T/C [2] was 89 % of control and the T/C [3] was 89 % of control.

CCC[CH2][Sn]([CH3])([CH3])[CH2]CCN(C)C was tested, and the T/C [7] was 98 % of control, the T/C [8] was 98 % of control and the T/C [9] was 88 % of control.

Nc1nc(SCC(=O)O)[nH]c(=O)c1NS(=O)(=O)c1ccccc1[N+](=O)[O-] was tested, and the T/C [10] was 90 % of control, the T/C [11] was 91 % of control and the T/C [12] was 96 % of control.

With ClCc1nnc2n1-c1ccc(Cl)cc1SC2 the T/C (dose: 60.0 mg/kg/injection, schedule: Q01DX005 (ip), vehicle: saline with Tween-80) was 106 % of control and the T/C (dose: 120.0 mg/kg/injection, schedule: Q01DX005 (ip), vehicle: saline with Tween-80) was 107 % of control.

[O]=[Ge]([c]1ccccc1)[c]1ccccc1 was tested, and the T/C [7] was 95 % of control, the T/C [8] was 96 % of control and the T/C [9] was 92 % of control.

For CCOC(=O)Cn1/c(=N/N=C(\C)c2ccc([N+](=O)[O-])o2)sc2cc(Cl)ccc21, the T/C [10] was 102 % of control, the T/C [11] was 106 % of control and 96 % of control and the T/C [12] was 101 % of control and 91 % of control.

In the case of Cc1noc(NS(=O)(=O)c2ccc(NC(=O)NCCCl)cc2)c1C, the T/C [13] was 102 % of control, the T/C [10] was 98 % of control and the T/C [11] was 95 % of control. The T/C [12] was 97 % of control.

With C/C=C(\C)C(=O)N/N=C\C=C\c1ccccc1 the T/C [4] was 89 % of control, the T/C [5] was 92 % of control and the T/C [6] was 89 % of control.

For CCOC(=O)CC1=NN=C(N)SC1, the T/C [14] was 100 % of control, the T/C [15] was 101 % of control and 103 % of control and the T/C [7] was 101 % of control and 106 % of control. For the same compound, the T/C [8] was 93 % of control and 97 % of control and the T/C [9] was 87 % of control.

In the case of CCC1(c2ccccc2)Nc2ccccc2C1=Nc1ccccc1 (centres undefined), the T/C (dose: 50.0 mg/kg/injection, schedule: Q04DX003 (ip), vehicle: saline with Tween-80) was 100 % of control, the T/C [16] was 99 % of control and the T/C [17] was 90 % of control.

With C=CCN(CC=C)C(N)=Nc1ccc(Cl)cc1 the T/C (dose: 6.25 mg/kg/injection, schedule: Q01DX009 (ip), vehicle: saline) was 100 % of control, the T/C [14] was 94 % of control and the T/C [15] was 97 % of control.

For CC1(C)c2ccccc2Nc2ccccc21, the T/C [16] was 100 % of control and the T/C [17] was 91 % of control.

CC(C)(CO)CS was tested, and the T/C [1] was 99 % of control, the T/C [2] was 100 % of control and the T/C [3] was 97 % of control.

For O=C(O)/C=N/NP(=O)(Oc1ccccc1)Oc1ccccc1, the T/C (dose: 25.0 mg/kg/injection, schedule: Q01DX009 (ip), vehicle: distilled water + Tween-80) was 99 % of control, the T/C (dose: 50.0 mg/kg/injection, schedule: Q01DX009 (ip), vehicle: distilled water + Tween-80) was 100 % of control and 94 % of control and the T/C (dose: 100.0 mg/kg/injection, schedule: Q01DX009 (ip), vehicle: distilled water + Tween-80) was 100 % of control and 95 % of control. The T/C (dose: 200.0 mg/kg/injection, schedule: Q01DX009 (ip), vehicle: distilled water + Tween-80) was 100 % of control and 97 % of control and the T/C (dose: 400.0 mg/kg/injection, schedule: Q01DX009 (ip), vehicle: distilled water + Tween-80) was 100 % of control and 109 % of control.

In the case of O=C(NC(Cc1cccs1)C(=O)O)c1ccccc1 (centres undefined), the T/C (dose: 25.0 mg/kg/injection, schedule: Q01DX009 (ip), vehicle: other) was 102 % of control, the T/C (dose: 50.0 mg/kg/injection, schedule: Q01DX009 (ip), vehicle: other) was 96 % of control and the T/C (dose: 100.0 mg/kg/injection, schedule: Q01DX009 (ip), vehicle: other) was 102 % of control.

For CC(=O)NC(CC(=O)O)C(=O)O (centres undefined), the T/C (dose: 100.0 mg/kg/injection, schedule: Q01DX001 (ip), vehicle: saline) was 106 % of control, the T/C (dose: 200.0 mg/kg/injection, schedule: Q01DX001 (ip), vehicle: saline) was 100 % of control and the T/C (dose: 400.0 mg/kg/injection, schedule: Q01DX001 (ip), vehicle: saline) was 97 % of control.

For COC1OC(CO)C(N(C)C(C)=O)C1O (centres undefined), the T/C [18] was 120 % of control, the T/C (dose: 120.0 mg/kg/injection, schedule: Q01DX005 (ip), vehicle: saline) was 115 % of control and the T/C (dose: 240.0 mg/kg/injection, schedule: Q01DX005 (ip), vehicle: saline) was 106 % of control.

With CCOC(=O)C1(NC(=O)Nc2ccccc2)CCCCC1 the T/C [5] was 100 % of control, the T/C [6] was 98 % of control and the T/C (dose: 200.0 mg/kg/injection, schedule: Q01DX005 (ip), vehicle: Klucel (hydroxypropylcellulose) (HPC)) was 104 % of control.

For N#CC1CCCC(c2ccccc2)(C2CCCCC2)C1=O (centres undefined), the T/C (dose: 100.0 mg/kg/injection, schedule: Q01DX001 (ip), vehicle: Klucel (hydroxypropylcellulose) (HPC)) was 99 % of control, the T/C (dose: 200.0 mg/kg/injection, schedule: Q01DX001 (ip), vehicle: Klucel (hydroxypropylcellulose) (HPC)) was 97 % of control and the T/C (dose: 400.0 mg/kg/injection, schedule: Q01DX001 (ip), vehicle: Klucel (hydroxypropylcellulose) (HPC)) was 103 % of control.

For O=C1c2ccccc2C(=O)c2c1cn1c2Cc2ccccc2C1, the T/C [13] was 103 % of control and 97 % of control, the T/C [10] was 113 % of control and 94 % of control and the T/C [11] was 103 % of control and 113 % of control and 96 % of control. The T/C (dose: 0.25 ml/mouse/injection, schedule: Q01DX005 (ip), vehicle: other) was 107 % of control and the T/C (dose: 0.5 ml/mouse/injection, schedule: Q01DX005 (ip), vehicle: other) was 106 % of control.

For COc1ccc(CC(N)c2nn[nH]n2)cc1 (centres undefined), the T/C [1] was 96 % of control and the T/C [2] was 98 % of control.

O=C(Nc1ccc(NC2=NCCN2)cc1)c1cc(Cl)cc(C(=O)Nc2ccc(NC3=NCCN3)cc2)c1 was tested, and the T/C (dose: 12.5 mg/kg/injection, schedule: Q01DX005 (ip), vehicle: Klucel (hydroxypropylcellulose) (HPC)) was 98 % of control and the T/C [4] was 102 % of control.

In the case of C=C(N)/C=C1/NC(C)=CS1, the T/C (dose: 15.0 mg/kg/injection, schedule: Q01DX005 (ip), vehicle: saline) was 96 % of control, the T/C (dose: 30.0 mg/kg/injection, schedule: Q01DX005 (ip), vehicle: saline) was 96 % of control and the T/C [18] was 91 % of control and 94 % of control.
